According to patent US20260240869A1, “ANTIPSEUDOMONAL FUSIDIC ACID COMPOUNDS” (priority 2022, published 2026):
In brackets after ≈: the same amount, converted by molar mass. Like-named read-outs stand apart in the source and are kept apart here.

Key:
E. coli MG1655 = assay: LC-MS/MS whole-cell accumulation assay, E. coli MG1655; format: cell-based; conditions: E. coli MG1655; accumulation of FA reported (Table 8)
Protocol: (§1) Accumulation Assay. The accumulation assay was performed in triplicate in batches of ten samples, with each batch containing tetracycline or ciprofloxacin as a positive control. P. aeruginosa PAO1, PAO1 A6, PA14, PA14 A40, and PA1280, and E. coli MG1655 were used in these experiments. For each replicate, 2.5 mL (E. coli) or 5 mL (P. aeruginosa) of an overnight culture was diluted into 250 mL of fresh Luria-Bertani broth (Lennox) or Tryptic Soy Broth (TSB) and grown at 37° C. with shaking to an optical density (OD600) of 0.55-0.60. The bacteria were pelleted at 3220 r.c.f. for 10 min at 4° C., and the supernatant was discarded. The pellets were resuspended in 40 mL of phosphate buffered saline (PBS) and pelleted as before, and the supernatant was discarded. The pellets were resuspended in 8.8 mL of fresh PBS and aliquoted into ten, 1.5 mL Eppendorf tubes (875 μL each). The number of colony-forming units (CFUs) was determined by a calibration curve. The samples were equilibrated at 37° C. with shaking for 5 min; compound was added (final concentration=50 μM), and then the samples were incubated at 37° C. with shaking for either 10 min. These time points were short enough to minimize metabolic and growth changes (no changes in OD600 or CFU count observed). After incubation, 800 μL of the cultures was carefully layered on 700 μL of silicone oil (9:1 AR20/Sigma High Temperature, cooled to −78° C.). Bacteria were pelleted through the oil by centrifuging at 13 000 r.c.f. for 2 min at room temperature (with the supernatant remaining above the oil); the supernatant and oil were then removed by pipetting. To lyse the samples, each pellet was dissolved in […] of water, and then, they were subjected to three (E. coli) or four (P. aeruginosa) freeze-thaw cycles of 3 min in liquid nitrogen followed by 3 min in a water bath at 65° C. P. aeruginosa samples were then treated with 50 µM DNase and RNase and incubated at 37° C. for 15 minutes. The lysates were pelleted at 13 000 r.c.f. for 2 min at room temperature, and the supernatant was collected ([…]). The debris was resuspended in 100 μL of methanol and pelleted as before. The supernatants were removed and combined with the previous supernatants collected. Finally, the remaining debris was removed by centrifuging at 20 000 r.c.f. for 10 min at room temperature. Supernatants were analyzed by LC-MS/MS.
(§2) Samples were analyzed with the 5500 QTRAP LC/MS/MS system (AB Sciex) with a 1200 series HPLC system (Agilent Technologies) including a degasser, an autosampler, and a binary pump. Liquid chromatography separation was performed on an Agilent SB-Aq column (4.6×50 mm, 5 μm) (Agilent Technologies) with mobile phase A (0.1% formic acid in water) and mobile phase B (0.1% formic acid in acetonitrile). The flow rate was 0.3 mL/min. The linear gradient was as follows: 0-3 min, 100% mobile phase A; 10-15 min, 2% mobile phase A; 15.5-21 min, 100% mobile phase A. The autosampler was set at 5° C. The injection volume was 15 μL. Mass spectra were acquired with both positive electrospray ionization at the ion spray voltage of 5500 V and negative electrospray ionization at the ion spray voltage of −4500 V. The source temperature was 450° C. The curtain gas, ion source gas 1, and ion source gas 2 were 33, 50, and 65, respectively. Multiple reaction monitoring was used to quantify the metabolites. Power analysis was not used to determine the number of replicates. Error bars represent the standard error of the mean of three biological replicates. The statistical significance of the accumulation was determined using a two sample Welch's t test (one-tailed test, assuming unequal variance) relative to the negative controls. All compounds evaluated in the biological assays were >95% pure.

[1] = tested on: FA resistance mutants of P. aeruginosa PAO1 A6; assay: MIC in FA-resistant mutants; format: cell-based, Pseudomonas aeruginosa; conditions: mutants generated in PAO1 A6
Protocol: (§3) Antimicrobial Susceptibility Tests. Susceptibility testing was performed in biological triplicate, using the microdilution broth method as outlined by the Clinical and Laboratory Standards Institute. Bacteria were cultured with cation-adjusted Meuller-Hinton broth (Sigma-Aldrich; catalogue number: 90922) or Luria-Bertani (LB) broth (Lennox) in round-bottom 96-well plates (Corning; catalogue number: 3788).
Selection ofresistant mutants. Resistant mutants were selected using the large inoculum method. […] Colonies were visible after incubating at 37° C. for 72 h.

[2] = Hydrolysis of prodrug in CAMH; format: physicochemical; conditions: In CAMH at 37° C.
From the text: As a result, amidoxime prodrug versions containing variable amine linkers were designed (Table 8).

P. aeruginosa PAO1 [3] = assay: LC-MS/MS whole-cell accumulation assay, P. aeruginosa PAO1; format: cell-based, Pseudomonas aeruginosa; conditions: for PA Accumulation (FA): P. aeruginosa PAO1, accumulation of FA reported (Table 8)
Protocol: as §1, §2
MBN assay. Assays measuring permeabilization by polymyxin B nonapeptide (PMBN) were performed as above, with the addition of 8 μg/mL PMBN immediately before the compound of interest was added.

P. aeruginosa PAO1 [4] = assay: MIC, CLSI broth microdilution, P. aeruginosa PAO1; format: cell-based, Pseudomonas aeruginosa; conditions: for MIC P. aeruginosa PAO1, CAMH: CAMH (Table 10); for shift in MIC on co-treatment with 5 mM MgCl2: P. aeruginosa PAO1; for MIC: Pseudomonas aeruginosa; for MIC P. aeruginosa PAO1, 5 mM MgCl2/CAMH: co-treatment 5 mM MgCl2 in CAMH (Table 10)
Protocol: as §3

P. aeruginosa PAO1 [5] = assay: NPN outer membrane permeability assay; format: cell-based, Pseudomonas aeruginosa; conditions: treatment for ten minutes
From the text: Further, the fluorescent probe N-phenylnapthylamine (NPN) was used to assess outer membrane permeability changes upon treatment with FA, gentamicin, and FA prodrug. NPN is membrane impermeable and is only weakly fluorescent in aqueous solutions. Upon entry to the cell and interacting with phospholipids, significant fluorescence is observed. […] This residual membrane depolarizing antibacterial activity can be observed in the FA polyamine (FIG. 4a) and the diacylated compound (Table 9).

P. aeruginosa PAO1 [6] = assay: DiSC3 (5) inner membrane depolarization assay; format: cell-based, Pseudomonas aeruginosa
[7] = tested on: hyperporinated P. aeruginosa A6 efflux deficient strain (PAO1 pore-A6); assay: microbe, parasite or virus in culture; format: cell-based; conditions: Pseudomonas aeruginosa, PAO1, read-out: MIC against PAO1 pore-A6
Protocol: as §3

Structure (SMILES) | EC Accumulation (FA) (E. coli MG1655) [nmol/1012 CFUs] | MIC fold change in FA-resistant strains [1] | PA Accumulation (FA) (P. aeruginosa PAO1 [3]) [nmol/1012 CFUs] | MIC P. aeruginosa PAO1, CAMH (P. aeruginosa PAO1 [4]) [µg/mL] | shift in MIC on co-treatment with 5 mM MgCl2 (P. aeruginosa PAO1 [4]) | MIC P. aeruginosa PAO1, 5 mM MgCl2/CAMH (P. aeruginosa PAO1 [4]) | NPN fluorescence (outer membrane permeability) (P. aeruginosa PAO1 [5]) | inner membrane depolarization (DiSC3 (5) fluorescence) (P. aeruginosa PAO1 [6]) | further results
CC(=O)O[C@H]1C[C@@]2(C)[C@@H](C[C@@H](O)[C@H]3[C@@]4(C)CC[C@@H](O)[C@@H](C)[C@@H]4CC[C@@]32C)/C1=C(\CCC=C(C)C)C(=O)O/N=C(\N)CNCCCNCCCNCCCN [FA prodrug, (3R, 4S,5S,8S,9S,10S,11R,13R,14S,16S,Z)-17-((Z)-1,14-diamino-22-methyl-17-oxo-16-oxa-4,8,12,15-tetraazatricosa-14,21-dien-18-ylidene)-3,11-dihydroxy-4,8,10,14-tetramethylhexadecahydro-1H-cyclopenta[a]phenanthren-16-yl acetate] | 3337 ± 175 | several fold change | 3396 ± 122 | 4 | 32 -fold | 128 | dose-dependent increase | dose-dependent inner membrane depolarization | period of hydrolysis to fusidic acid [2]: 48 h; MIC against P. aeruginosa PAO1 (P. aeruginosa PAO1 [4]): 4 µg/mL; Fold change (MIC) (P. aeruginosa PAO1 [4]; 5 mM MgCl2/CAMH versus CAMH (Table 10)): 32X; increase in activity relative to FA (P. aeruginosa PAO1 [4]; PAO1 MIC): 256 -fold; MIC (P. aeruginosa PAO1 [4]; PAO1): 4 µg/mL; MIC (P. aeruginosa PAO1 [4]; PAO1, read-out: MIC P. aeruginosa PAO1): 4 µg/mL; MIC (P. aeruginosa PAO1 [4]; PAO1, read-out: P. aeruginosa PAO1 MIC): 4 µg/mL
CC(=O)O[C@H]1C[C@@]2(C)[C@@H](C[C@@H](O)[C@H]3[C@@]4(C)CC[C@@H](O)[C@@H](C)[C@@H]4CC[C@@]32C)/C1=C(\CCC=C(C)C)C(=O)O [FA, Fusidic acid] | 52 ± 5 | 32-128 × | 80 ± 7 | 1020 (≈ 1980 µM) | no change in antibacterial activity | 1024 | did not lead to any change in fluorescence | did not impact membrane polarization | MIC [7]: 4 µg/mL (≈ 7.74 µM); accumulation in PAO1 (in words) (P. aeruginosa PAO1 [3]; FIG. 1a / FIG. 5): does not accumulate; change of accumulation upon membrane permeabilization (P. aeruginosa PAO1 [3]; treatment with PMBN, FIG. 1b): significant increase in accumulation; MIC (P. aeruginosa PAO1 [4]; PAO1, CLSI (Table 8), read-out: P. aeruginosa PAO1 MIC): 1020 µg/mL (≈ 1980 µM); MIC (P. aeruginosa PAO1 [4]; PAO1, Table 9, read-out: MIC P. aeruginosa PAO1): 1020 µg/mL (≈ 1980 µM); MIC (P. aeruginosa PAO1 [4]; Reference strain PAO1 (Table 11), read-out: MIC): 1020 µg/mL (≈ 1980 µM); MIC (P. aeruginosa PAO1 [4]; WT P. aeruginosa PAO1, MH broth (Table 1), read-out: PAO1 MIC): > 512 µg/mL; PAO1 + PMBN MIC (P. aeruginosa PAO1 [4]; co-treatment of 8 μg/mL of PMBN, MH broth): 4 µg/mL; MIC versus PAO1 (P. aeruginosa PAO1 [4]; text b125, Chart 6): 1024 μg/mLh
